Assays:
B16 melanoma F10 cells [1] = experiment: Inhibitory effect on total melanin production upon ultraviolet irradiation, B16 melanoma F10 cells; type: cell-based
B16 melanoma F10 cells [2] = experiment: Inhibitory effect on melanin production in B16 melanoma F10 cells; type: cell-based; conditions: 10 μM, 72 hours
Protocol: B 16 melanoma F 10 cells were seeded into each well of a 24-well plate at a cell concentration of 10^4 cells/well. After 17 hours, the adhesion of the cells was confirmed and the medium was removed. […] The plate was incubated in a CO2 incubator for 72 hours and then the medium was removed. Next, 2 ml of NaOH was added into each well of the plate, followed by standing at 60° C. for 30 minutes. Then, the cell solution was measured for absorbance at 450 nm. The concentration of melanin was calculated compared to the melanin standard curve.

O=c1cc(CO)occ1O [kojic acid]
melanin production upon ultraviolet irradiation (B16 melanoma F10 cells [1]; 0.2 μM): 22.72 µg/mL
melanin production upon ultraviolet irradiation (B16 melanoma F10 cells [1]; 2 μM): 19.22 µg/mL
production of melanin (B16 melanoma F10 cells [2]): 16.54 µg/mL
